Assay results taken from patent publication US9062043B2, “Fused tricyclic compounds as serine-threonine protein kinase and PARP modulators” (SENHWA BIOSCIENCES, INC., priority 2006, dated 2015).
Like-named read-outs stand apart in the source and are kept apart here.

Columns and labels:
PARP = PARP (Homo sapiens (Human), UniProt P09874); assay: PARP assay (chemiluminescent PARP assay kit, Trevigen); type: biochemical; details: for inhibition at 20 µM: read-out: PARP % inhib @ 20 uM
Experimental: Modulatory activity of compounds described herein was assessed in vitro in cell-free CK2 assays. Modulatory activity of compounds described herein also are assessed in vitro in cell-free PARP assays. These assays are described hereafter.
PARP assays are conducted using a chemiluminescent PARP assay kit (Trevigen). Briefly, reactions are performed in Histone-coated strip wells, by adding 10 microliters test compound dissolved in 1×PARP Buffer (prepared by mixing 20×PARP buffer diluted with high-purity water) and 15 microliters diluted PARP-HSA enzyme (diluted in 1× PARP buffer, 0.1 unit per well) to 25 microliters PARP cocktail (prepared from 10×PARP cocktail and 10× activated DNA, both 2.5 microliters per well and 20 microliters per well of 1×PARP buffer). The reactions are incubated at ambient temperature for 60 minutes, then the liquid was removed. After washing the wells four times with PBS (200 ul), 50 microliters of STREP-HRP (Horseradish Peroxidase) solution (diluted 500-fold in 1× Strep-Diluent) was added and the reactions were allowed to incubate for 30 minutes at ambient temperature. The liquid was removed and, after washing the wells four times with PBS (200 ul), 50 microliters each of PeroxyGlo A and B (Chemiluminescent Horseradish Peroxidase substrates) are added and the resulting chemiluminescence quantified on the SpectraMax M5 plate reader.

[1] = test system: MiaPaca human pancreatic carcinoma cells; assay: Cell proliferation assay, Alamar Blue, MiaPaca; type: cell-based
Experimental: A representative cell-proliferation assay protocol using Alamar Blue dye (stored at 4° C., use 20 ul per well) is described hereafter.
c. Plate 4,000-5,000 cells per well in 100 μl of medium and seed into a 96-well plate according to the following plate layout. Add cell culture medium only to wells B10 to B12. Wells B1 to B9 have cells but no compound added.
d. Add 100 μl of 2× drug dilution to each well in a concentration shown in the plate layout above. At the same time, add 100 μl of media into the control wells (wells B10 to B12). Total volume is 200 μl/well.
e. Incubate four (4) days at 37° C., 5% CO2 in a humidified incubator.
f. Add 20 μl Alamar Blue reagent to each well.
g. Incubate for four (4) hours at 37° C., 5% CO2 in a humidified incubator.
h. Record fluorescence at an excitation wavelength of 544 nm and emission wavelength of 590 nm using a microplate reader.
In the assays, cells are cultured with a test compound for approximately four days, the dye then is added to the cells and fluorescence of […] dye is detected after approximately four hours. Different types of cells can be utilized in the assays (e.g., HCT-116 human colorectal carcinoma cells, PC-3 human prostatic cancer cells and MiaPaca human pancreatic carcinoma cells). Anti-proliferative effects of representative compounds are provided hereafter.

[2] = test system: HCT-116 human colorectal carcinoma cells; assay: Cell proliferation assay, Alamar Blue, HCT-116; type: cell-based;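 also: cells exposed to compound for about 4 days, then Alamar Blue added and fluorescence read after about 4 h, medium-only wells as control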
[3] = at 1 μM, Table 10, read-out: PARP Inhibition %
[4] = 1 uM, Table 12, read-out: PARP % inhib @ 1 uM
[5] = HCT-116, Table 16, first HCT-116 column
[6] = HCT-116, Table 16, second HCT-116 column

PARP, sequence (P09874 whole entry): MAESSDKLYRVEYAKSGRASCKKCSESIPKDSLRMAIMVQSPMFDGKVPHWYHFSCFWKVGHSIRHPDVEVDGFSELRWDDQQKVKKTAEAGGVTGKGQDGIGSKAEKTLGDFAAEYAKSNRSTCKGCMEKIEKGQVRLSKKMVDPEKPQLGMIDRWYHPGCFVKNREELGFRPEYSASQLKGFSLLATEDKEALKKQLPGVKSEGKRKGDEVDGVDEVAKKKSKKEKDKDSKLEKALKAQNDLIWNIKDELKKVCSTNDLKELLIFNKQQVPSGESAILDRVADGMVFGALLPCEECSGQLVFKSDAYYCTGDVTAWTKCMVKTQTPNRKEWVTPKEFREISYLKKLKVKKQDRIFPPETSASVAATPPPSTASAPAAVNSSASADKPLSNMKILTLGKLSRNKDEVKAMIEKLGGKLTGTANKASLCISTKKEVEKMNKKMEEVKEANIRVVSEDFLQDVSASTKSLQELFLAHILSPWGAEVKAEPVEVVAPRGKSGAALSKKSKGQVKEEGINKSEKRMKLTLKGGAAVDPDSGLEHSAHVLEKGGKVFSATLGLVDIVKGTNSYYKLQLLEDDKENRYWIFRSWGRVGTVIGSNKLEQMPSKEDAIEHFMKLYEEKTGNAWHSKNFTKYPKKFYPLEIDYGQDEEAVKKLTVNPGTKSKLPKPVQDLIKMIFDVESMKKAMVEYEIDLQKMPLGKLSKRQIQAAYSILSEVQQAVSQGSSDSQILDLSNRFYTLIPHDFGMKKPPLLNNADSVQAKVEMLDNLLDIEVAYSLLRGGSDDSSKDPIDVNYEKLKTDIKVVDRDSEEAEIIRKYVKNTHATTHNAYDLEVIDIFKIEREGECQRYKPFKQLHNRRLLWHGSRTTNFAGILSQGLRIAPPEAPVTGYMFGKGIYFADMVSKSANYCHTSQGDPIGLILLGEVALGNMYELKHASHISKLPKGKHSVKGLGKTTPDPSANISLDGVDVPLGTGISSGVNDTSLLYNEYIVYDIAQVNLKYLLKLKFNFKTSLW

IC50 ([1]; MIA PaCa-2, Table 16) [µM]	IC50 [2, 6] [µM]	Compound	further results
		CN(C)CCNc1nc2cc(C(=O)O)ccc2c2ccccc12	inhibition at 1 µM (PARP; [3]): 15%
		O=C(O)c1ccc2c(c1)nc(Nc1ccccc1)c1ccccc12	inhibition at 1 µM (PARP; [3]): 9%
		O=c1c2ccccc2c2ccc(-c3nnn[nH]3)cc2n1CCCO	inhibition at 1 µM (PARP; [3]): 33%
		O=c1[nH]c2ccccc2c2sccc12	inhibition at 20 µM (PARP; Table 12): 0%
		CN(C)CCNC(=O)c1ccc2c(c1)[nH]c(=O)c1ccsc12	inhibition at 20 µM (PARP; Table 12): 85%
		CC(C)(C)OC(=O)N1CCN(C(=O)c2ccc3c(c2)[nH]c(=O)c2ccsc23)CC1	inhibition at 1 µM (PARP; [4]): 72%; IC50 (PARP; Table 12): 0.3 µM
		CC(C)(C)OC(=O)NC1CCN(C(=O)c2ccc3c(c2)[nH]c(=O)c2ccsc23)CC1	inhibition at 1 µM (PARP; [4]): 49%
		COc1ccccc1CNC(=O)c1ccc2c(c1)[nH]c(=O)c1ccsc12	inhibition at 1 µM (PARP; [4]): 27%
		Cc1cc(CNC(=O)c2ccc3c(c2)[nH]c(=O)c2ccsc23)no1	inhibition at 1 µM (PARP; [4]): 67%; IC50 (PARP; Table 12): 0.5 µM
		COc1ccc(CNC(=O)c2ccc3c(c2)[nH]c(=O)c2ccsc23)cc1	inhibition at 1 µM (PARP; [4]): 45%
		O=C(NCc1ccccn1)c1ccc2c(c1)[nH]c(=O)c1ccsc12	inhibition at 1 µM (PARP; [4]): 71%; IC50 (PARP; Table 12): 1 µM
		O=C(NCCc1ccccc1)c1ccc2c(c1)[nH]c(=O)c1ccsc12	inhibition at 1 µM (PARP; [4]): 64%; IC50 (PARP; Table 12): 0.5 µM
		O=C(NCc1ccncc1)c1ccc2c(c1)[nH]c(=O)c1ccsc12	inhibition at 1 µM (PARP; [4]): 75%; IC50 (PARP; Table 12): 1 µM
		O=C(NCc1cccnc1)c1ccc2c(c1)[nH]c(=O)c1ccsc12	inhibition at 1 µM (PARP; [4]): 71%
		O=C(Nc1ccc(CN2CCS(=O)(=O)CC2)cc1)c1ccc2c(c1)[nH]c(=O)c1ccsc12	inhibition at 1 µM (PARP; [4]): 29%
		O=C(c1ccc2c(c1)[nH]c(=O)c1ccsc12)N1CCNCC1	inhibition at 1 µM (PARP; [4]): 96%; IC50 (PARP; Table 12): 0.03 µM
		NC1CCN(C(=O)c2ccc3c(c2)[nH]c(=O)c2ccsc23)CC1	inhibition at 1 µM (PARP; [4]): 96%; IC50 (PARP; Table 12): 0.02 µM
		O=C(Nc1ccccc1C(=O)O)c1ccc2c(c1)[nH]c(=O)c1ccsc12	inhibition at 1 µM (PARP; [4]): 12%
		NC(=O)c1ccc2c(c1)[nH]c(=O)c1ccsc12	inhibition at 1 µM (PARP; [4]): 79%; IC50 (PARP; Table 12): 0.06 µM
		O=c1[nH]c2cc(CO)ccc2c2sccc12	inhibition at 1 µM (PARP; [4]): 74%; IC50 (PARP; Table 12): 0.4 µM
		O=C(O)c1ccc2c3sccc3c(=O)n(CCCO)c2c1	inhibition at 1 µM (PARP; [4]): 21%
> 10		O=C(O)c1ccc2c(c1)nc(Nc1ccc(F)c(Cl)c1)c1ccsc12	IC50 [2, 5]: > 10 µM
> 10		COc1cccc(Nc2nc3cc(C(=O)O)ccc3c3sccc23)c1	IC50 [2, 5]: > 10 µM

IC50 ([1]; MIA PaCa-2, Table 16) [µM]	IC50 [2, 6] [µM]	Compound	further results
> 10	> 10	NS(=O)(=O)c1cccc(Nc2nc3cc(-c4nnn[nH]4)ccc3c3sccc23)c1	
> 10	> 10	Brc1cccc(Nc2nc3cc(-c4nnn[nH]4)ccc3c3sccc23)c1	
> 10		O=C(O)c1cccc(Nc2nc3cc(-c4nnn[nH]4)ccc3c3sccc23)c1	
> 10	> 10	CCOc1cccc(Nc2nc3cc(C(=O)O)ccc3c3sccc23)c1	
> 10	> 10	O=C(c1cccc(Nc2nc3cc(-c4nnn[nH]4)ccc3c3sccc23)c1)N1CCOCC1	
> 10	> 10	CN(C)CCNC(=O)c1cccc(Nc2nc3cc(-c4nnn[nH]4)ccc3c3sccc23)c1	
> 10	> 10	COC(=O)CNC(=O)c1cccc(Nc2nc3cc(-c4nnn[nH]4)ccc3c3sccc23)c1	
> 10		CC(C)(C)OC(=O)CCNC(=O)c1cccc(Nc2nc3cc(-c4nnn[nH]4)ccc3c3sccc23)c1	
> 10	> 10	O=C(NCc1cccnc1)c1cccc(Nc2nc3cc(-c4nnn[nH]4)ccc3c3sccc23)c1	
> 10	> 10	CN(C)C(=O)c1cccc(Nc2nc3cc(-c4nnn[nH]4)ccc3c3sccc23)c1	
> 10	> 10	Cc1cc(CNC(=O)c2cccc(Nc3nc4cc(-c5nnn[nH]5)ccc4c4sccc34)c2)no1	
> 10	> 10	COCCNC(=O)c1cccc(Nc2nc3cc(-c4nnn[nH]4)ccc3c3sccc23)c1	
> 10	> 10	CC(=O)N1CCN(C(=O)c2cccc(Nc3nc4cc(-c5nnn[nH]5)ccc4c4sccc34)c2)CC1	
> 10	> 10	CNC(=O)Cc1cccc(Nc2nc3cc(C(=O)O)ccc3c3sccc23)c1	
> 10	> 10	O=C(O)c1ccc2c(c1)nc(Nc1cccc(Br)c1)c1ccsc12	
> 10	> 10	O=C(O)c1ccc2c(c1)nc(Nc1cccc(Cl)c1F)c1ccsc12	
> 10	> 10	O=C(O)c1ccc2c(c1)nc(Nc1ccc3[nH]ccc3c1)c1ccsc12	
> 10	> 10	Cc1cccc(Nc2nc3cc(C(=O)O)ccc3c3sccc23)c1	
> 10	> 10	O=C(O)c1ccc2c(c1)nc(Nc1ccc3cc[nH]c3c1)c1ccsc12	
> 10		O=C(O)c1ccc2c(c1)nc(Nc1cccc(-c3ccccc3)c1)c1ccsc12	
> 10	> 10	CNS(=O)(=O)c1cccc(Nc2nc3cc(C(=O)O)ccc3c3sccc23)c1	
> 10	> 10	O=C(O)c1ccc2c(c1)nc(Nc1cccc(C(F)(F)F)c1)c1ccsc12	
> 10	> 10	CCc1cccc(Nc2nc3cc(C(=O)O)ccc3c3sccc23)c1	

IC50 ([1]; MIA PaCa-2, Table 16) [µM]	IC50 [2, 6] [µM]	Compound	further results
9.44	> 10	O=C(O)c1ccc2c(c1)nc(Nc1cccc(I)c1)c1ccsc12	
> 10	> 10	O=C(O)c1ccc2c(c1)nc(Nc1cccc(F)c1F)c1ccsc12	
> 10	> 10	O=C(O)c1ccc2c(c1)nc(Nc1cc(F)cc(C(F)(F)F)c1)c1ccsc12	
> 10	> 10	O=C(O)c1cc(F)cc(Nc2nc3cc(C(=O)O)ccc3c3sccc23)c1	
> 10	> 10	O=C(O)c1ccc2c(c1)nc(Nc1cc(F)ccc1F)c1ccsc12	
> 10	> 10	O=C(O)c1ccc2c(c1)nc(Nc1cccc(S(=O)(=O)NC3CC3)c1)c1ccsc12	
> 10	0.83	O=C(O)c1ccc2c(c1)nc(Nc1ccc(F)c(F)c1)c1ccsc12	
> 10	> 10	O=C(O)c1ccc2c(c1)nc(Nc1cc(F)cc(Cl)c1)c1ccsc12	
> 10	> 10	N#Cc1cc(F)cc(Nc2nc3cc(C(=O)O)ccc3c3sccc23)c1	
> 10	> 10	Fc1cc(Cl)cc(Nc2nc3cc(-c4nnn[nH]4)ccc3c3sccc23)c1	
> 10	> 10	C#Cc1cccc(Nc2nc3cc(-c4nnn[nH]4)ccc3c3sccc23)c1	
> 10	> 10	Fc1cc(F)cc(Nc2nc3cc(-c4nnn[nH]4)ccc3c3sccc23)c1	
		CN(C)c1ncc2c(n1)c(Nc1cccc(Cl)c1)nc1cc(C(=O)O)ccc12	IC50 ([1]; MIA PaCa-2, Table 18): > 50 µM
		COC(=O)c1ccc2c(c1)nc(Cl)c1ccsc12 [drawing 552]	inhibition at 1 µM (PARP; [4]): 18%
		O=C(O)c1ccc2c(c1)nc(NCc1ccccc1)c1ccncc12 [drawing 1020]	IC50 ([1]; MIA PaCa-2, Table 18): 31.2 µM; IC50 ([2]; HCT-116, Table 18): > 10 µM
		CCOc1ncc2c(n1)c(NC1CC1)nc1cc(C(=O)O)ccc12 [drawing 1073]	IC50 ([1]; MIA PaCa-2, Table 18): > 50 µM; IC50 ([2]; HCT-116, Table 18): > 10 µM
		O=C(O)c1ccc2c(c1)nc(NCc1cccnc1)c1nc(NC3CC3)ncc12 [drawing 1083]	IC50 ([1]; MIA PaCa-2, Table 18): 13.8 µM; IC50 ([2]; HCT-116, Table 18): > 10 µM
		O=C(O)c1ccc2c(c1)nc(NCc1ccccc1)c1nc(NC3CC3)ncc12 [drawing 1084]	IC50 ([1]; MIA PaCa-2, Table 18): 12.9 µM; IC50 ([2]; HCT-116, Table 18): > 10 µM
		Cc1cc(Nc2ncc3c(n2)c(Nc2ccc(F)c(Cl)c2)nc2cc(C(=O)O)ccc23)[nH]n1 [drawing 1093]	IC50 ([1]; MIA PaCa-2, Table 18): 18.2 µM; IC50 ([2]; HCT-116, Table 18): > 10 µM
		O=C(O)c1ccc2c(c1)nc(NC1CC1)c1ccncc12 [drawing 1097]	IC50 ([1]; MIA PaCa-2, Table 18): 26.5 µM; IC50 ([2]; HCT-116, Table 18): > 10 µM
		COC(=O)c1ccc2c(c1)nc(NC1CC1)c1nc(SC)ncc12 [drawing 1099]	IC50 ([1]; MIA PaCa-2, Table 18): > 50 µM
		CN(C)CCNc1nc2cc(C(=O)O)ccc2c2cnc(NC3CC3)nc12 [drawing 1100]	IC50 ([1]; MIA PaCa-2, Table 18): > 50 µM
		Nc1ncc2c(n1)c(NC1CC1)nc1cc(C(=O)O)ccc12 [drawing 1102]	IC50 ([1]; MIA PaCa-2, Table 18): > 50 µM; IC50 ([2]; HCT-116, Table 18): > 10 µM
